Assay results from US8658787B2, “Galacto-rhamnogalacturonate compositions for the treatment of non-alcoholic steatohepatitis and non-alcoholic fatty liver disease” (Galectin Therapeutics Inc., priority 2011, dated 2014).

Test system: STAM mice
Experiment: STAM mouse model of steatohepatitis (diabetes induced, high fat diet), treatment with GR-MD-02
Assay type: in vivo
Procedure: The experimental model used in this example is the mouse in which diabetes was induced and a high fat diet was administered, a model that has been called STAM mice. […] This is a proven model in which the mice consistently develop NASH with hepatocyte fat accumulation, evidence of hepatocyte toxicity, portal and lobular inflammatory infiltrates, peri-sinusoidal fibrosis, advanced fibrosis with nodule formation, cirrhosis, and ultimately hepatocellular carcinoma in a certain percentage of animals.
The progression of disease appearance is fatty liver (FL) by five weeks of age, steatohepatitis (NASH) by 7 weeks of age, fibrosis (Fib) by 9 weeks of age, nodule formation (N) by 13 weeks of age, and some animals developing hepatocellular carcinoma (HC) by 16 weeks of age (FIG. 1).
GR-MD-02, produced as described in Example 1, was given in a dose of 60 mg/kg twice weekly intravenously for four (4) weeks at the each of the starting times indicated. Early treatment was given for weeks 6 through 9 and late therapy was given for weeks 9 through 12.
The NFLD activity score was used to evaluate the severity of liver disease on histological sections of liver and gives points for three aspects of NASH pathology including, steatosis (0 (<5%), 1 (5-33%), 2 (33-66%), or 3 (>66%)), hepatocyte ballooning (0 (none), 1, (few), or […]), and lobular inflammation (0 (no foci), 1 (<2 foci/200× field), 2 (2-4 foci/200× field), or 3 (>4 foci/200× field)). The total number of points is the NFLD activity score.

For galacto-rhamnogalacturonate [GR-MD-02], the whole blood glucose (60 mg/kg twice weekly i.v., early or late treatment schedule, vs vehicle control) was “no statistical differences”, the “changes in body weight” value (60 mg/kg twice weekly intravenously, early (weeks 6-9) and late (weeks 9-12) treatment, vs vehicle (normal saline)) was “no difference in body weight” and the “Sirius red staining of liver histology” value (early (6-9 weeks) and late (9-12 weeks) treatment groups, vs vehicle control) was “marked reduction in Sirius red staining”. For the same substance, the “collagen percent area (Sirius red, computer assisted morphometric analysis)” value (early and late treatment groups and both combined, vs vehicle) was “markedly statistically significantly reduced”, the “NFLD activity score on liver histology (average)” value (early treatment group (weeks 6-9), 60 mg/kg twice weekly i.v., vehicle average 5, p<0.01 vs vehicle) was 3 and the “alpha-Smooth Muscle Actin in liver tissue (immunohistochemical staining, digital morphometry)” value (marker for activated stellate cells, vs vehicle) was “marked reduction in alpha-Smooth Muscle Actin”. For the same substance, the “galectin-3 in liver tissue (immunohistochemical staining, digital morphometry)” value (vs vehicle treated animals) was “marked reduction of galectin-3”.
